Consider one compound from patent US10330673B2, “Fluorescent chemical sensor for biological amines” (The Curators of the University of Missouri, priority 2013, dated 2019).

Data set [1] is described as follows: Fluorescence titration of sensor with dopamine. It is filed as binding. The note with it: for Ka: pH 5.0, 37° C. Here is the method: Fluorescence spectra were recorded on a Shimadzu RF-5301 PC spectrofluorometer at 37° C. A 1 mg/mL stock solution of I-2 in DMSO was prepared. A stock solution of I-2 in buffer (1×10^−5 M, 25 mM HEPES, 50 mM Na2S2O3, pH=5.0) was prepared. Norepinephrine, dopamine, epinephrine, and glutamate stock solutions were prepared by separately dissolving the analytes at the concentration to be used in the titration with the buffered stock solution of I-2 (thus avoiding dilution of I-2 during the experiment). I-2 was titrated with aliquots of analyte solution. The sensor was excited at 488 nm with slit widths of 5 nm.
Fluorescence spectra were recorded on a Shimadzu RF-5301 PC spectrofluorometer at 37° C. A separate 1 mg/mL stock solution of each coumarin-3-aldehyde derivative in DMSO was prepared. An aqueous stock solution of each derivative (10 μM) in buffer (25 mM HEPES, 50 mM Na2S2O3, pH=5.0) was prepared. Norepinephrine, dopamine, glutamate, and epinephrine stock solutions were prepared by separately dissolving the solid analytes at the concentration to be used in the titration with the buffered stock solutions described above and thus, avoiding dilution of the sensor during the experiment. The benzene-based NS521 derivatives were excited at 488 nm. The thiophene-based derivatives were excited at 515 nm.

Data set [2] can be described thus: Fluorescence quantum yield of sensor bound to glutamate. It is filed as physicochemical. As for the experimental part:
Steady-state fluorescence spectroscopic studies were performed using a Horiba Scientific Fluorolog-3 Model FL3C-111 spectrofluorometer and data was collected and analyzed using HJY FluorEssence™ 3.5.1.20 software package. UV-visible spectra were obtained on a Varian Cary 1E UV-visible spectrophotometer. A stock solution of each benzene- or thiophene-based coumarin-3-aldehyde derivative (1 μM) in buffer (25 mM HEPES, 50 mM Na2S2O3, pH=5.0) was prepared. Each solution contained 1% (v/v) DMSO as a cosolvent except as noted. The slit width was 2 nm for both excitation and emission. The bound benzene- and thiophene-coumarin-3-aldehyde derivatives contained 500 mM glutamate (pH=5.0).
To determine the relative quantum yield of fluorescence (Φfl) for the benzene-based derivatives, a 1.0 μM solution of fluorescein (absolute Φfl=0.85) in 0.1 N NaOH (pH 13) was used as a fluorescence standard. The unbound derivatives were excited at 473 nm and the bound derivatives were excited at 488 nm. To determine the relative quantum yield of fluorescence (Φfl) for the thiophene-based derivatives, a 1.0 μM solution of rhodamine B (absolute Φfl=0.31) in water (pH 7) was used as a fluorescence standard. The unbound derivatives were excited at 473 nm and the bound derivatives were excited at 515 nm. Quantum yields were obtained in triplicate and calculated as per the following equation: […]

Data set [3] in a line: Fluorescence response mode toward catecholamines. It is filed as binding. The note with it: catecholamines norepinephrine and dopamine.
The nature of data set [4]: Fluorescence quantum yield of sensor bound to norepinephrine. It is filed as physicochemical.
Data set [5] relates to NE-enriched chromaffin cells. The experiment in a line: Fixed-cell staining with I-2 and anti-PNMT antibody, NE-enriched cells. The format is cell-based, bovine. The note with it: 1 μM, fixed in 4% paraformaldehyde, visualized at 525 nm. The source says: To further validate the selectivity of the inventive sensor, the inventive detection method is validated with an established procedure in which phenylethanolamine N-methyltransferase (PNMT) is stained with an antibody and visualized with a Cy3-conjugated secondary antibody. It has been shown that epinephrine-enriched cell populations gave the highest level of PNMT staining, while norepinephrine-enriched populations gave lower staining (ca. 20% of that with epinephrine-enriched cells). For this experiment, three populations of chromaffin cells (norepinephrine-enriched, epin ephrine-enriched, and mixed) were stained with Compound I-2 and fixed in 4% paraformaldehyde. The fixed cells were stained with the anti-PNMT and secondary antibodies.
Chromaffin cells were isolated from bovine adrenal glands as previously described. […]
NE-enriched cells, EP-enriched cells and mixed cells stained with I-2 (1 μM) and plated on 0.0025% Poly (1-lysine) coated cover slips, after three washed with pre-warmed phosphate-buffered saline (pH=7.4, PBS), were fixed in 4% paraformaldehyde (Sigma, St. Louis, Mo., USA) in PBS for 60 min at room temperature (RT), followed by 6 min in methanol chilled to −20° C. […] After three washed in PBS, bound antibody was detected using Cy™3-conjugated AffiniPure Donkey Anti-Rabbit (1:150 dilution, Jackson ImmunoResearch Laboratories, Inc, Nest Grove, Pa., 19390). […]

Where [6] appears, read: Table 2, analyte dopamine, benzene-based compounds I, excited at 488 nm.

`CCN(CC)c1ccc2c(-c3ccc(OC)cc3)c(C=O)c(=O)oc2c1` [Compound I-2, 7-diethylamino-3-formyl-4-(4′-methoxyphenyl)coumarin]: in data set [1] (setting [6]), the F.E. stood at 2.98. In addition, the Ka came to 112.10 M⁻¹ in data set [1] (setting [6]) and 112 M⁻¹ in data set [1] (amine guest dopamine, fluorescence spectroscopy, λex = 488 nm, λem = 521 nm). In addition, in data set [1] (amine guest dopamine, intensity at saturation from fit to binding isotherm), the “Isat/Io (λex = 488 nm)” value came to 3.0. In addition, the “Quantum Yield (Φ)” value is 0.0095 in data set [2] (bound to glutamate) and 0.0033 in data set [4]. For the same compound, the “difference in quantum yields, bound to glutamate vs bound to norepinephrine” value in data set [2] (in words) is “three-fold”. For the same compound, in data set [3], the “mode of fluorescence response” value is “turn-on fluorescent sensor”. Also, the “staining of fixed cells by sensor” value in data set [5] is “stain brightly”.
